Results published in patent US4518587A, “Dipeptides of L-5-hydroxytryptophan, processes for their preparation and drugs in which they are present” (S.A. Panmedica, priority 1983, dated 1985).
Like-named read-outs stand apart in the source and are kept apart here. Square brackets hold non-standard residues; d marks the D form. Peptide text beside a SMILES is read from it. * marks the point of attachment. Trp(5-OH) = N[C@@H](Cc1c[nH]c2ccc(O)cc12)C(=O)O; OtBu = CC(C)(C)O*; tBu = CC(C)(C)*

Tested on: brain levels of L-5-hydroxytryptophan (L-5-HTP), serotonin (5-HT) and 5-hydroxyindoleacetic acid (5-HIAA)
Assay: Biochemical analysis of brain levels of L-5-HTP, 5-HT and 5-HIAA one hour after a single dose (technique of CURZON and GREEN)
Type: in vivo, rats
Settings: for change in vivo at 10 mg/kg / change in vivo at 25 mg/kg / change in vivo at 50 mg/kg: Rattus norvegicus, 1 h; for change in vivo at 10 mg/kg: read-out: %, relative to the controls, of L-5-HTP at dose of 10 mg/kg
Method: Biochemical analysis of the brain levles of L-5-hydroxytryptophan (L-5-HTP), serotonin (5-HT) and its first metabolite, 5-hydroxyindoleacetic acid (5- HIAA), was carried out one hour after the administration of a single dose to adult rats by the technique of CURZON and GREEN. Three doses were studied, i.e. 10, 25 and 50 mg/kg, 10 animals being used per dose. Table I below indicates the percentage increases in 5-HTP, 5-HT and 5-HIAA relative to the levels found in the control animals: […]

[1] = brain level, adult rats, single dose 10 mg/kg, one hour after administration, percentage increase relative to control animals
[2] = brain level, adult rats, single dose 25 mg/kg, one hour after administration, percentage increase relative to control animals, read-out: %, relative to the controls, of 5-HIAA at dose of 25 mg/kg
[3] = brain level, adult rats, single dose 25 mg/kg, one hour after administration, percentage increase relative to control animals, read-out: %, relative to the controls, of L-5-HTP at dose of 25 mg/kg
[4] = brain level, adult rats, single dose 50 mg/kg, one hour after administration, percentage increase relative to control animals, read-out: %, relative to the controls, of 5-HIAA at dose of 50 mg/kg
[5] = brain level, adult rats, single dose 50 mg/kg, one hour after administration, percentage increase relative to control animals, read-out: %, relative to the controls, of 5-HT at dose of 50 mg/kg
[6] = brain level, adult rats, single dose 50 mg/kg, one hour after administration, percentage increase relative to control animals, read-out: %, relative to the controls, of L-5-HTP at dose of 50 mg/kg
[7] = brain level, adult rats, single dose 25 mg/kg, one hour after administration, percentage increase relative to control animals
[8] = read-out: %, relative to the controls, of 5-HIAA at dose of 25 mg/kg
[9] = read-out: %, relative to the controls, of 5-HIAA at dose of 50 mg/kg
[10] = brain level, adult rats, single dose 50 mg/kg, one hour after administration, percentage increase relative to control animals
[11] = read-out: %, relative to the controls, of 5-HT at dose of 50 mg/kg
[12] = read-out: %, relative to the controls, of L-5-HTP at dose of 25 mg/kg
[13] = read-out: %, relative to the controls, of L-5-HTP at dose of 50 mg/kg

Row | Compound | change in vivo at 10 mg/kg [1] [%] | change in vivo at 25 mg/kg [3] [%] | change in vivo at 50 mg/kg [5] [%] | %, relative to the controls, of 5-HT at dose of 10 mg/kg [1] [%] | %, relative to the controls, of 5-HT at dose of 25 mg/kg [7] [%] | %, relative to the controls, of 5-HIAA at dose of 10 mg/kg [1] [%] | %, relative to the controls, of 5-HIAA at dose of 50 mg/kg [10] [%] | %, relative to the controls, of L-5-HTP at dose of 50 mg/kg [10] [%] | other results
1 | N[C@@H](Cc1c[nH]c2ccc(O)cc12)C(=O)N1CCC[C@H]1C(=O)O [Example 11, 5-HYDROXY-L-TRYPTOPHYL-L-PROLINE] (H-[Trp(5-OH)]-Pro-OH) | 200 | 700 | 20 | 10 |  |  |  |  | change in vivo at 25 mg/kg [2]: 150%; change in vivo at 50 mg/kg [4]: 300%
2 | N[C@@H](Cc1c[nH]c2ccc(O)cc12)C(=O)N[C@@H](Cc1c[nH]c2ccccc12)C(=O)O [Example 14, 5-Hydroxy-L-tryptophyl-L-tryptophan] (H-[Trp(5-OH)]-Trp-OH) | 50 | 100 | 10 |  | 12 |  |  |  | change in vivo at 50 mg/kg [6]: 200%
3 | C[C@H](NC(=O)[C@@H](N)Cc1c[nH]c2ccc(O)cc12)C(=O)O.O [Example 8, 5-HYDROXY-L-TRYPTOPHYL-L-ALANINE HYDRATE] (H-[Trp(5-OH)]-Ala-OH) |  |  |  |  | 5 | 75 |  |  | change in vivo at 25 mg/kg [8]: 140%; change in vivo at 50 mg/kg [9]: 400%; change in vivo at 10 mg/kg: 200%
4 | N[C@@H](Cc1c[nH]c2ccc(O)cc12)C(=O)NCC(=O)O [Example 19, 5-HYDROXY-L-TRYPTOPHYLGLYCINE] (H-[Trp(5-OH)]-Gly-OH) |  | 700 | 30 | 30 | 12 | 75 |  |  | change in vivo at 25 mg/kg [2]: 170%; change in vivo at 50 mg/kg [4]: 350%
5 | COC(=O)[C@H](Cc1c[nH]cn1)NC(=O)[C@@H](N)Cc1c[nH]c2ccc(O)cc12 [Example 22, METHYL ESTER OF 5-HYDROXY-L-TRYPTOPHYL-L-HISTIDINE] (H-[Trp(5-OH)]-His-OMe) |  |  |  |  | 15 | 40 | 300 | 300 | %, relative to the controls, of 5-HIAA at dose of 25 mg/kg [7]: 140%; %, relative to the controls, of L-5-HTP at dose of 25 mg/kg [7]: 200%; %, relative to the controls, of 5-HT at dose of 50 mg/kg [10]: 15%
6 | COC(=O)[C@H](Cc1ccc(O)cc1)NC(=O)[C@@H](N)Cc1c[nH]c2ccc(O)cc12.Cl [Example 5, Methyl ester of 5-hydroxy-L-tryptophyl-L-tyrosine hydrochloride] (H-[Trp(5-OH)]-Tyr-OMe) |  |  |  | 12 | 10 | 55 | 170 | 1200 | %, relative to the controls, of L-5-HTP at dose of 10 mg/kg [1]: 200%; %, relative to the controls, of 5-HIAA at dose of 25 mg/kg [7]: 160%; %, relative to the controls, of L-5-HTP at dose of 25 mg/kg [7]: 450%; %, relative to the controls, of 5-HT at dose of 50 mg/kg [10]: 40%
7 | N[C@@H](Cc1c[nH]c2ccc(O)cc12)C(=O)N[C@@H](CCC(=O)O)C(=O)O [Example 4, 5-Hydroxy-L-tryptophyl-L-glutamic acid] (H-[Trp(5-OH)]-Glu-OH) | 200 | 550 | 60 | 5 | 10 |  |  |  | 
8 | COC(=O)[C@H](Cc1c[nH]c2ccc(O)cc12)NC(=O)[C@H](Cc1c[nH]c2ccc(O)cc12)NC(C)=O [Example 7, METHYL ESTER OF N-ACETYL-5-HYDROXY-L-TRYPTOPHYL-5-HYDROXY-L-TRYPTOPHAN] (Ac-[Trp(5-OH)]-[Trp(5-OH)]-OMe) |  |  |  |  |  | 10 | 20 | 30 | %, relative to the controls, of L-5-HTP at dose of 10 mg/kg [1]: 10%; %, relative to the controls, of 5-HIAA at dose of 25 mg/kg [7]: 20%
9 | NC(=O)[C@@H](N)Cc1c[nH]c2ccc(O)cc12.O [Example 21, 5-HYDROXY-L-TRYPT[…], HYDRATE] |  |  |  |  |  |  |  |  | change in vivo at 25 mg/kg [8]: 50%; change in vivo at 50 mg/kg [9]: 170%; change in vivo at 50 mg/kg [11]: 20%; change in vivo at 10 mg/kg: 125%; change in vivo at 25 mg/kg [12]: 250%; change in vivo at 50 mg/kg [13]: 700%
10 | CC(C)(C)OC[C@H](NC(=O)[C@@H](N)Cc1c[nH]c2ccc(O)cc12)C(=O)OC(C)(C)C [Example 15, Tert.-butyl ester of L-5-hydroxytryptophyl-O-tert.-butyl-L-serine] (H-[Trp(5-OH)]-Ser(tBu)-OtBu) |  |  |  |  |  |  | 150 | 900 | %, relative to the controls, of L-5-HTP at dose of 10 mg/kg [1]: 200%; %, relative to the controls, of 5-HIAA at dose of 25 mg/kg [7]: 60%; %, relative to the controls, of L-5-HTP at dose of 25 mg/kg [7]: 400%
11 | 5-HYDROXY-L-TRYPTOPHAN-L-VALINE [Example 9] |  |  |  | 12 | 40 | 70 | 320 | 1700 | %, relative to the controls, of L-5-HTP at dose of 10 mg/kg [1]: 300%; %, relative to the controls, of 5-HIAA at dose of 25 mg/kg [7]: 250%; %, relative to the controls, of L-5-HTP at dose of 25 mg/kg [7]: 900%; %, relative to the controls, of 5-HT at dose of 50 mg/kg [10]: 45%
12 | N=C(N)NCCC[C@H](NC(=O)[C@@H](N)Cc1c[nH]c2ccc(O)cc12)C(=O)O [Example 18, 5-Hydroxy-L-tryptophyl-L-arginine] (H-[Trp(5-OH)]-Arg-OH) | 100 | 300 | 30 | 12 | 30 | 10 |  |  | change in vivo at 25 mg/kg [2]: 15%; change in vivo at 50 mg/kg [4]: 15%; change in vivo at 50 mg/kg [6]: 500%
13 | NC(=O)[C@@H](N)Cc1c[nH]c2ccc(O)cc12.O [Example 21, 5-HYDROXY-L-TRYPT[…]] |  |  |  |  |  | 30 |  |  | 
14 | N[C@@H](Cc1c[nH]c2ccc(O)cc12)C(=O)N[C@@H](CC(=O)O)C(=O)O.O.O.O [Example 2, 5-Hydroxy-L-tryptophyl-L-aspartic acid trihydrate] (H-[Trp(5-OH)]-Asp-OH) |  |  |  | 5 | 5 |  |  |  | change in vivo at 50 mg/kg [11]: 10%; change in vivo at 10 mg/kg: 200%; change in vivo at 25 mg/kg [12]: 600%; change in vivo at 50 mg/kg [13]: 1000%
15 | COC(=O)[C@H](Cc1ccc(O)cc1)NC(=O)[C@H](Cc1c[nH]c2ccc(O)cc12)NC(C)=O [Example 6, Methyl ester of N-acetyl-5-hydroxy-L-tryptophyl-L-tyrosine] (Ac-[Trp(5-OH)]-Tyr-OMe) |  |  |  |  | 5 |  |  |  | %, relative to the controls, of 5-HT at dose of 50 mg/kg [10]: 5%
16 | CC(C)C[C@H](NC(=O)[C@@H](N)Cc1c[nH]c2ccc(O)cc12)C(=O)O [Example 10, 5-HYDROXY-L-TRYPTOPHYL-L-LEUCINE] (H-[Trp(5-OH)]-Leu-OH) | 200 | 600 | 45 |  | 12 | 55 |  |  | change in vivo at 25 mg/kg [2]: 100%; change in vivo at 50 mg/kg [4]: 350%
17 | 5-Hydroxy-L-tryptophyl-5-hydroxy-L-tryptophan hemihydrate [Example 13] |  |  |  |  | 5 |  | 10 | 50 | %, relative to the controls, of L-5-HTP at dose of 25 mg/kg [7]: 50%; %, relative to the controls, of 5-HT at dose of 50 mg/kg [10]: 5%
18 | N[C@@H](Cc1c[nH]c2ccc(O)cc12)C(=O)N[C@@H](CO)C(=O)O [Example 16, L-5-HYDROXYTRYPTOPHYL-L-SERINE] (H-[Trp(5-OH)]-Ser-OH) | 170 |  | 15 |  |  | 10 |  |  | change in vivo at 25 mg/kg [2]: 30%; change in vivo at 50 mg/kg [4]: 150%; change in vivo at 50 mg/kg [6]: 900%
19 | N[C@@H](Cc1c[nH]c2ccc(O)cc12)C(=O)N[C@@H](Cc1ccccc1)C(=O)O [Example 12, 5-HYDROXY-L-TRYPTOPHYL-L-PHENYLALANINE] (H-[Trp(5-OH)]-Phe-OH) |  |  |  |  |  |  |  |  | change in vivo at 25 mg/kg [8]: 140%; change in vivo at 50 mg/kg [9]: 180%; change in vivo at 50 mg/kg [11]: 25%; change in vivo at 10 mg/kg: 170%; change in vivo at 25 mg/kg [12]: 500%
